Values quoted from earlier work, collected in US20240397939A1, “COMPOSITIONS COMPRISING DIFFERENT DRIFT RETARDING AGENTS” (BAYER CROPSCIENCE LP, priority 2021, published 2024).

Details: known HLB value, estimation by Griffin's method

Question: With Sorbitan monooleate [Span® 80] as the substance, how does the HLB read?
Answer: The HLB was 4.3.

Question: For “Polysorbate 80 (polyoxyethylene sorbitan monooleate) [Tween® 80]”, which HLB is on record?
Answer: Its HLB is 15.
